# Experimental data taken from patent US6864086B2, “Nitric oxide-scavenging system for culturing oocytes, embryos, or other cells” (Board of Supervisors of Louisiana State University and …, priority 1998, dated 2005).
# Test system: 8-cell bovine embryos cultured singly
# Experiment: Example 7: Hb (1 μg/ml) in mBECM-S, 8-cell embryos derived from Hb-containing co-culture, cultured singly
# Format: cell-based
# Experimental: mBECM containing 10 μM β-mercaptoethanol was used to culture embryos, as described in J. Lim et al., “Roles of growth factors in the development of bovine embryos fertilized in vitro and cultured singly in a defined medium,” Reprod. Fertil. Dev., 8, 1199-1205 (1996). To culture individual 8-cell embryos we used mBECM supplemented with 1 ng/ml platelet derived growth factor type AB (PDGF; Upstate Biotechnology Inc., Lake Placid, N.Y.), 1 ng/ml transforming growth factor-β (TGF; R & D System, Minneapolis, Minn.), 50 ng/ml arachidonic acid (AA; Cayman Chemical Co., Ann Arbor, Mich.), 100 μM glutathione (GSH; Sigma Co.) and 1 mg/ml polyvinyl alcohol (PVA) (mBECM-S). mBECM to which 10% (v/v) FBS was added (mBECM-C) was used for co-culturing inseminated zygotes with CGs and for producing 8-cell embryos. Osmolarity of the medium was maintained within the range of 265-290 mOsm.
# The bovine cumulus-oocyte complexes (COCs) used were collected in Madison, Wis. (BOMED, Inc.), and were shipped in 2-ml of maturation medium in a battery powered incubator via overnight express mail service. Oocytes matured during transit and arrived within 24 h after exposure to maturation medium, pre-equilibrated at 39° C. in 5% CO2 in air. At 22-24 h after exposure to the medium, the COCs were inseminated in vitro as described in J. Lim et al., “Intracytoplasmic glutathione concentration and the role of β-mercaptoethanol in preimplantation development of bovine embryos,” Theriogenology, 46, 429-439 (1996). At 18 h post-insemination, COCs were cultured in groups (30-35 embryos) in a 4-well multidish (Nunc, Roskilde, Denmark) containing 0.8-ml of mBECM-C. Embryos were dislodged from CGs at 36-48 h post-insemination.
# In Example 1, embryos (83-85 per group) collected 18 h post-insemination were cultured in mBECM-C, to which 0, 0.008, or 0.04 mM SNP was added at 18 or 60 h post-insemination. In Example 2, 8-cell embryos (80 per group) were produced in a co-culture system containing CGs and mBECM-C, and then beginning at 60 h post-insemination were cultured singly in a defined culture medium (mBECM-S), to which 0, 0.0016, 0.008, or 0.04 mM of SNP (S-0501, Sigma Co.) was added. In Example 3 embryos, either uncleaved (n=99) or developed to the 2-cell stage (90), were collected 48 h post-insemination; and cleaved embryos, either developed to the morula stage (69) or degenerate (63) were collected 144 h post-insemination. NO metabolites were then measured in the embryos. In Example 4, three groups of 95 zygotes each were co-cultured with CGs in mBECM-C, to which 0, 1, or 10 μg/ml Hb (bovine, mainly methemoglobin, H-2500, Sigma Co.) was added. […] Inseminated oocytes (104 per group) were co-cultured with CGs in MBECM-C up to 192 h post-insemination; and Hb (1 μg/ml) was added to the medium at 18, 60, or 144 h post-insemination. In Example 6, inseminated oocytes (93 per group) were cultured in the presence or absence of CGs in mBECM-C to which either 0 or 1 μg/ml Hb was added. […]
# Oocytes or 8-cell embryos were randomly and equally allocated to each treatment group. In Examples 1, 2, and 4-7, oocytes or embryos that had developed to the 2-cell, 8-cell, >8-cell, 16-cell morula, and blastocyst stages were individually scored ‘1’ (developed) at 48, 60, 96, 120, 144 and 192 h post-insemination, respectively. […] Sums of the scores in each stage of development were evaluated by analysis of variance (ANOVA) using the general linear model (PROC-GLM) in the SAS program software. […]
substance,measurement,setting,value
hemoglobin [Hb],Number of embryos developed to >8-cell,"Hb 1 μg/ml present in mBECM-S, 100 8-cell embryos, examined 96 h",68
same,Number of embryos developed to 16-cell,"Hb 1 μg/ml present in mBECM-S, 100 8-cell embryos, examined 120 h",44
same,Number of embryos developed to Morula,"Hb 1 μg/ml present in mBECM-S, 100 8-cell embryos, examined 144 h",26
same,Number of embryos developed to Blastocyst,"Hb 1 μg/ml present in mBECM-S, 100 8-cell embryos, examined 192 h",8
same,effect on proportions of 8-cell embryos developing to each embryonic stage,"Hb added to mBECM-S, P>0.09",no significant effect
